Assay results from patent publication US5792466A, “Mimetic insect kinin analogs for insect control” (The United States of America, as represented by the …, priority 1996, dated 1998).
“Also recorded” adds a separate entry of the source. Like-named read-outs stand apart in the source and are kept apart here. Ends that are not written are not given here. Peptide text beside a SMILES is read from it. QP = not defined here

Legend:
[1] = tested on: isolated Malpighian tubules of the cricket Acheta domesticus; details: cited from earlier work; for EC50 / Cricket Malpighian tubule fluid secretion Maximum response (%): naturally occurring achetakinins; for EC50: read-out: Cricket (Acheta domesticus) Malpighian tubule fluid secretion EC50; for Cricket Malpighian tubule fluid secretion Maximum response (%): literature reference (6)
[2] = tested on: isolated Leucophaea maderae cockroach hindgut; details: cited from earlier work; for Cockroach (Leucophaea maderae) hindgut contraction threshold (pM) ± (S.D.): naturally occurring achetakinins, Holman et al., 1990, reference (12); for potency in hindgut myotropic assay relative to parent or natural insect kinins: literature (Holman et al., 1987; Nachman et al., 1994)
[3] = tested on: angiotensin converting enzyme (ACE) from the housefly Musca domestica; details: cited from earlier work
[4] = tested on: isolated Malpighian tubules of the cricket Acheta domesticus; test: Cricket Malpighian tubule secretion bioassay; assay type: cell-based; details: for Cricket Malpighian tubule fluid secretion Maximum response (%): percentage of the response to a supermaximal dose (10 nM) of achetakinin-I, Aib analogs
Source text: Crickets were reared as described (Clifford et al., 1977, Ann. Entomol. Soc. Am., 70:69-74) and fed a diet of turkey starter crumbs. Water was provided ad lib. Malpighian tubules were removed from 6-12-day-old adult virgin females. Single tubules were isolated in vitro as described (Coast, G. M., 1988, Physiol. Entomol., 13:381-391). After a 40-min equilibration period, the bathing fluid was changed and the rate of secretion, in picoliters per millimeter length of tubule per minute (pl/mm/min), was determined over 40 min (control rate). Thereafter, the bathing fluid was exchanged for one containing the assay material and the rate of secretion was determined over an additional 40-min period (experimental rate). Diuretic activity was calculated as the difference between control and experimental rates, and results are expressed as a percentage of the response obtained with a supermaximal dose (10 nM) of achetakinin-I assayed alongside the test analogues. All experiments were performed at room temperature (21°-24° C.) (Coast et al., 1990, ibid).

[5] = tested on: isolated Leucophaea maderae cockroach hindgut; test: Cockroach hindgut myotropic bioassay; assay type: cell-based; details: for potency in the cockroach hindgut myotropic assay relative to the most potent of the achetakinins (AK-IV): comparison of threshold concentrations; for Cockroach (Leucophaea maderae) hindgut contraction threshold (pM) ± (S.D.): minimum concentration evoking observable change in contractions, Aib analogs; for threshold activities on the isolated cockroach hindgut bioassay: values in M
Procedure: Leucophaea maderae cockroaches were taken from stock colonies maintained at 27° C. and fed dry dog food ad lib. Cockroach hindguts, free of central nervous system (CNS) tissue, were dissected, immersed in saline, and prepared for recording of myogenic activity as previously described [Holman et al., 1991, Insect Biochem., 21(1):107-112]. Threshold concentrations were determined for each analogue by adding a known quantity of peptide (dissolved in 0.5 ml bioassay saline) to the bioassay chamber containing the hindgut and observing the response on a Gould 2200S oscillograph recorder. The quantity of the peptide analogues was calculated from the values obtained for Phe in the amino acid analysis. The threshold concentration was defined as the minimum concentration of peptide in the chamber required to evoke an observable change in the frequency (50%) or amplitude of contractions (5%) within 1 min and sustained for 3 min. Threshold concentrations were obtained from five cockroach hindguts on 5 consecutive days for each peptide. Quantitative data for dose-response plots were obtained as previously described (Holman et al., 1991, ibid).

[6] = tested on: angiotensin converting enzyme (ACE) from the housefly Musca domestica; test: ACE enzyme hydrolysis trials; assay type: in vitro ADME; details: pH 8.3, 37° C., over 120 minutes
Procedure: Musca ACE (Mr, 67,000) was purified from a soluble extract of adults as described elsewhere (Cornell et al., J. Biol. Chem., in press; Lamango and Isaac, J. Biol. Chem., in press) and yielded enzyme which appeared as a single band by SDS-PAGE. Unless otherwise stated, peptides (12-750 μM, final concentration) were incubated with Musca ACE in 100 mM Tris/HCl, pH 8.3 in the presence of 10 μM ZnCl2 and 0.3M NaCl at 37° C. Reactions (15 μl) were terminated either by heating to 100° C. for 5 min or by the addition of 5 μl of 8% (v/v) TFA, followed by centrifugation (13000 g, Microcentaur) for 2 min and diluted to 100 μl with 0.1% (v/v) TFA before HPLC analysis.
HPLC analysis was performed using a Pharmacia SuperPac Pep-S column (250 mm×4 mm, internal diameter) packed with 5 μm ODS particles. The solvent system comprised elution with 5% acetonitrile in 0.1% (v/v) trifluoroacetic acid for 3 min, followed by a linear increase of the acetonitrile component from 3 to 41% in 11 min (total run time of 14 min).

[7] = Lamango et al., Peptides, submitted

For “AYFSPWG-NH2 [AK-II, AY--Phe--Ser--Pro--Trp--Gly--NH2]”, the EC50 ([1]; Coast et al., 1990) is listed as 0.022 nM, the “Cricket Malpighian tubule fluid secretion Maximum response (%)” value [1] is listed as 91% and the “Cockroach (Leucophaea maderae) hindgut contraction threshold (pM) ± (S.D.)” value (“Cockroach … (S.D.)” below) [2] is listed as 48 pM.
In the case of “DPGFSSWG-NH2 [LK-II, DPG--Phe--Ser--Ser--Trp--Gly--NH2]”, the “hydrolysis by ACE” value [3, 7] is given as “hydrolyze”.
In the case of “AFHSWG-NH2 [AK-V, A--Phe--His--Ser--Trp--Gly--NH2]”, the EC50 ([1]; Coast et al., 1990) is given as 0.018 nM, the “Cricket Malpighian tubule fluid secretion Maximum response (%)” value [1] is given as 88% and the “Cockroach … (S.D.)” value [2] is given as 43 pM.
For `CC(C)(NC(=O)[C@H](Cc1ccccc1)NC(=O)[C@H](Cc1ccccc1)NC(=O)[C@H](CCCCN)NC(=O)[C@@H]1CCC(=O)N1)C(=O)N[C@@H](Cc1c[nH]c2ccccc12)C(=O)NCC(N)=O` [pGlu--Lys--Phe--Phe--Aib--Trp--Gly--NH2] (HELM PEPTIDE1{[Glp].K.F.F.[Aib].W.G.[am]}$$$$V2.0), the “Cricket Malpighian tubule fluid secretion Maximum response (%)” value [4] was 101%, the “potency in the cockroach hindgut myotropic assay relative to the most potent of the achetakinins (AK-IV)” value [5] was “an order of magnitude more potent” and the “Cockroach … (S.D.)” value [5] was 3.5 pM. For the same compound, the “threshold activities on the isolated cockroach hindgut bioassay” value (“threshold activities” for short) [5] was 3.5 pM.
For “NFKFNPWG-NH2 [AK-IV, NFK--Phe--Asn--Pro--Trp--Gly--NH2]”, the EC50 ([1]; Coast et al., 1990) is given as 0.024 nM, the “Cricket Malpighian tubule fluid secretion Maximum response (%)” value [1] is given as 96% and the “Cockroach … (S.D.)” value [2] is given as 180 pM.
In the case of “SGADFYPWG-NH2 [AK-I, SGAD--Phe--Tyr--Pro--Trp--Gly--NH2]”, the EC50 ([1]; Coast et al., 1990) is listed as 0.078 nM, the “Cricket Malpighian tubule fluid secretion Maximum response (%)” value [1] is listed as 86% and the “Cockroach … (S.D.)” value [2] is listed as 82 pM.
With `CC(C)(NC(=O)[C@H](Cc1ccccc1)NC(=O)[C@@H](N)Cc1ccccc1)C(=O)N[C@@H](Cc1c[nH]c2ccccc12)C(=O)NCC(N)=O` [Phe--Phe--Aib--Trp--Gly--NH2] (HELM PEPTIDE1{F.F.[Aib].W.G.[am]}$$$$V2.0) the “hydrolysis by angiotensin converting enzyme (ACE)” value [6] was “complete resistance to ACE; also recorded: complete resistance to hydrolysis”, the “potency in the Malpighian tubule assay relative to the most potent naturally occurring achetakinin (AK-IV) / endogenous insect kinins” value ([4]; comparison of EC50 values) was “greater potency than the endogenous insect kinins” and the “Cricket Malpighian tubule fluid secretion Maximum response (%)” value [4] was 99%. The “potency in the cockroach hindgut myotropic assay relative to the most potent of the achetakinins (AK-IV)” value [5] was “roughly half as potent”, the “potency in the cockroach hindgut myotropic assay relative to the most potent of the achetakinins (AK-IV)” value ([5]; listed as first analog) was “one half as potent” and the “Cockroach … (S.D.)” value [5] was 100 pM. The “threshold activities” value [5] was 100 pM.
In the case of “SKYVSQK-Phe--Phe--Ser--Trp--Gly--NH2 [Cus-DP-III]”, the “hydrolysis by ACE” value [3] is given as “hydrolyze”.
For “FYPWG-NH2 [Phe--Tyr--Pro--Trp--Gly--NH2]”, the “potency in cricket Malpighian tubule secretion assay relative to parent nonapeptide” value ([1]; Coast et al., 1990) is given as “equipotent with the parent nonapeptide” and the “potency in hindgut myotropic assay relative to parent or natural insect kinins” value [2] is given as “equipotent with the parent nonapeptide”.
With `CC(C)(NC(=O)[C@H](Cc1ccccc1)NC(=O)[C@H](Cc1ccccc1)NC(=O)[C@H](CCCCNC(=O)[C@@H]1CCC(=O)N1)NC(=O)[C@@H]1CCC(=O)N1)C(=O)N[C@@H](Cc1c[nH]c2ccccc12)C(=O)NCC(N)=O` [pGlu--Lys(pGlu)--Phe--Phe--Aib--Trp--Gly--NH2] (HELM PEPTIDE1{[Glp].K.F.F.[Aib].W.G.[am]}|PEPTIDE2{[Glp]}$PEPTIDE1,PEPTIDE2,2:R3-1:R2$$$V2.0) the “Cricket Malpighian tubule fluid secretion Maximum response (%)” value [4] was 103%, the “potency in the cockroach hindgut myotropic assay relative to the most potent of the achetakinins (AK-IV)” value [5] was “three orders of magnitude less potent” and the “Cockroach … (S.D.)” value [5] was 28,000 pM. For the same compound, the “threshold activities” value [5] was 28000 pM.
In the case of “QP--Phe--His--Ser--Trp--Gly--NH2 ({QP}-FHSWG-NH2; reading uncertain; also: printed as QP--Phe--His--Ser--Trp--Gly--NH2) [Cus-DP-I]”, the “hydrolysis by ACE” value [3, 7] is given as “hydrolyze”.
For “KFFPWG-NH2 [Lys--Phe--Phe--Pro--Trp--Gly--NH2]”, the “potency in hindgut myotropic assay relative to parent or natural insect kinins” value [2] is listed as “more active than the pentapeptide core and/or the naturally occurring insect kinins”.
For “NNANVFYPWG-NH2 [Cus-DP-II, NNANV-Phe--Tyr--Pro--Trp--Gly--NH2]”, the “hydrolysis by ACE” value [3, 7] is given as “hydrolyze”.
In the case of “ALPFSSWG-NH2 [AK-III, ALP--Phe--Ser--Ser--Trp--Gly--NH2]”, the EC50 ([1]; Coast et al., 1990) is given as 0.324 nM, the “Cricket Malpighian tubule fluid secretion Maximum response (%)” value [1] is given as 108% and the “Cockroach … (S.D.)” value [2] is given as 270 pM.
